# Assay results as given in patent publication US8716279B2, “Pharmaceutical compositions of clonazepam and method of use thereof” (Jazz Pharmaceuticals, Inc., priority 2006, dated 2014).
# Columns and labels:
# [1] = Human pharmacokinetic, safety and tolerability study (oral, intravenous, intranasal cross-over); conditions: metabolite after 1 mg clonazepam
# Method: The human pharmacokinetics, safety, and tolerability of the clonazepam compositions of the present invention formulated for intranasal delivery for therapeutic applications are evaluated using standard clinical procedures. Clonazepam compositions formulated for intranasal delivery are provided, for example, for application by the participants to intranasal mucosa.
# A primary objective of initial studies in humans is to determine and compare pharmacokinetic profiles of three dosage forms of clonazepam: oral, i.v., and intranasal, following single administration. An example of such a study in humans is a cross-over study performed in 12 healthy male volunteers. Plasma and urine level of clonazepam and 7-amino-clonazepam are determined, for example, using HPLC and UV detection. […] Further the initial studies in humans are used to determine local tolerability of intranasal formulation using questionnaire and the Visual Analog Scale (VAS). VAS is a validated instrument that has been used in numerous studies to quantify subjective opening of the nasal passages. In addition, cognitive, sleepiness and mood effects are evaluated using questionnaires and scales (see, e.g., Example 10 below). Further, attention and vigilance may be evaluated using, for example, LEEDS Psychomotor Multiple Choice Reaction Time (MCRT) testing.
# A human pharmacokinetic study was carried out as described in Example 8.
# 15 young, healthy male volunteers received a single dose of 1 mg clonazepam by oral, intravenous and intranasal routes in a three-period cross-over design.
# [2] = Spray pattern of solvent matrices from Pfeiffer unit-dose devices; format: physicochemical; conditions: 100 μL, Pfeiffer unit-dose device, 20-25° C.
# Method: (§1) Fourteen representative solvent matrices used for clonazepam formulations were tested for spray pattern and compared with water. The solvent mixtures were made up, spiked with minute amounts of Coomassie Brilliant Blue Dye and 100 μL were subsequently filled into Pfeiffer unit-dose devices (Pfeiffer of America, Princeton, N.J.). To measure the spray pattern, the devices were actuated below a sheet of paper that was located 3 cm above the spray nozzle. All measurements were made at ambient room temperature (20-25° C.). The smallest (Dmin) and the largest (Dmax) diameter of the blue pattern formed on the sheet of paper were measured and the results used to calculate the Dmax/Dmin ratio, the area of the pattern and the average spray angle. The plume area at 3 cm was calculated using the equation for the area of an ellipse using the half of the two diameters as the ellipse radii. Viscosity of all formulations was measured using Brookfield DV-I viscometer (Brookfield Engineering Laboratories, Inc., Middleboro, Mass.).
# [3] = Viscosity of solvent matrices; format: physicochemical; conditions: for measured viscosity: Gilmont falling ball viscometer
# Method: as §1
# As weather may dictate substantially different conditions of use, the effect of temperature on viscosity was determined. A Gilmont falling ball viscometer was filled with diethylene glycol monoethyl ether and calibrated for several hours at each temperature.
smiles,measurement,setting,value
Nc1ccc2c(c1)C(c1ccccc1Cl)=NCC(=O)N2 [7-Amino-clonazepam],mean AUCt,[1]; intranasal route,16.9 ng·h/mL
same,mean Cmax,"[1]; intranasal route, 24-hour sampling",1.17 ng/mL
same,mean AUCt,[1]; intravenous route,approximately 30 ng·h/mL
same,mean Cmax,[1]; intravenous route,approximately 2 ng/mL
same,mean AUCt,[1]; oral route,approximately 30 ng·h/mL
same,mean Cmax,[1]; oral route,approximately 2 ng/mL
O [Water],Plume area at 3 cm (cm^2),[2],15.52 cm^2
same,Ratio Dmax/Dmin,[2],1.10
same,Avg. viscosity (cP),"[3]; Brookfield DV-I viscometer, solvent matrix without clonazepam",1.0 cP
"CCOCCOCCO [diethylene glycol monoethyl ether, Diethylene glycol monoethyl ether]",measured viscosity,[3]; 8° C.,5.4 cP
same,measured viscosity,[3]; 23° C.,3.8 cP
same,measured viscosity,[3]; 40° C.,3.1 cP
same,measured viscosity,[3]; −17° C.,6.6 cP
